Source: patent US11427556B2, “Urea derivatives as inhibitors of ASK1” (Hepagene Therapeutics (HK) Limited, priority 2017, dated 2022)
Where two headings read alike, the source gives them in different places.

Target: T1, Recombinant human ASK1 kinase (Homo sapiens, UniProt Q99683)
T1 construct: purchased Invitrogen Inc
T1 sequence (Q99683 1-1374): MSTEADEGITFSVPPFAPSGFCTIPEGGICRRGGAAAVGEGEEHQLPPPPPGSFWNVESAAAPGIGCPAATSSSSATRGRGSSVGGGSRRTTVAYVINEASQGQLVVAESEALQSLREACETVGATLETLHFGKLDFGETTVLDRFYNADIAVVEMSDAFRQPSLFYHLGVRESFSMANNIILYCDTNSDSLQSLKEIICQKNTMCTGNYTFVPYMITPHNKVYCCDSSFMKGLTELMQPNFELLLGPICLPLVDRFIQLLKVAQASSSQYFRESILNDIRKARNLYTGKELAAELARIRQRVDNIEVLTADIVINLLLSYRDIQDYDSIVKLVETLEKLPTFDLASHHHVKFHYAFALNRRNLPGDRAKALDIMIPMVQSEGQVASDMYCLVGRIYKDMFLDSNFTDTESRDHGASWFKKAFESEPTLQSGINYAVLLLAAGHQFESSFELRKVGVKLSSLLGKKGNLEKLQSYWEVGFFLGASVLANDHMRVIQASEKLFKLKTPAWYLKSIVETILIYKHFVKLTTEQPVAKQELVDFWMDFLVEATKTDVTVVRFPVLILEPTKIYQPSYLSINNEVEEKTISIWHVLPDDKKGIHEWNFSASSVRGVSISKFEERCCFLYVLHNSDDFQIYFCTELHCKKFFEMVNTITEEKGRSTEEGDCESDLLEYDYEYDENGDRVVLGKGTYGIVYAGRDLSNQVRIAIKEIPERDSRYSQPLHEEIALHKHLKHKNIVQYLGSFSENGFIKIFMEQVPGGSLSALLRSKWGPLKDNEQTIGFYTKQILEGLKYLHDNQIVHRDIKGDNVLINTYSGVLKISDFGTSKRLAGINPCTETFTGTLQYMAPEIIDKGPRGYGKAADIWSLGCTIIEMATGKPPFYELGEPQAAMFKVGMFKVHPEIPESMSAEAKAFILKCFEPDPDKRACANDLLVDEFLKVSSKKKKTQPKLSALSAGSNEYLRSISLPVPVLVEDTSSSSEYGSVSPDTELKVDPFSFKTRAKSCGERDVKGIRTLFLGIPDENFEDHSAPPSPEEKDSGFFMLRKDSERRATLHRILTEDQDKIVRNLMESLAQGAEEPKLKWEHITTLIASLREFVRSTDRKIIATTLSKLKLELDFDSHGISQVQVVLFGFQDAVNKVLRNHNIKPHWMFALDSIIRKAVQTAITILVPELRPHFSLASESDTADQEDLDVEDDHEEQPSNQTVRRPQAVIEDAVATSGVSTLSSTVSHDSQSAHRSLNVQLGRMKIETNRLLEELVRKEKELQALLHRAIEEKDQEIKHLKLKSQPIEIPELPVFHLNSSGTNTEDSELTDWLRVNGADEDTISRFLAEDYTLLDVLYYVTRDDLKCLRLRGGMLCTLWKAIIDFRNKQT
Test: ASK1 kinase HTRF assay (HTRF KinEASE-STK, phosphorylation of biotinylated peptide substrate)
Format: biochemical
Experimental: Reagents: Recombinant human ASK1 kinase was from Invitrogen Inc. HTRF KinEASETM-STK S3 kit was obtained from Cisbio (Bedford, Mass.). All other reagents were of the highest grade commercially available.
Assay: The assay measures the phosphorylation level of a biotinylatd peptide substrate by the ASK1 kinase using HTRF detection. ASK1 kinase assay is based on HTRF KinEASETM-STK manual from Cisbio. Test compound, 1 uM STK-substrate-biotin, 3 nM of ASK1 kinase are incubated with 1*Kinase buffer with 5 mM MgCl2 and 1 mM DTT.

[1] = 3 nM ASK1 kinase, 1 uM STK-substrate-biotin, HTRF detection, read-out: EC50

SMILES	EC50 [1]	EC50
CC(C)n1cnnc1-c1cccc(NC(=O)Nc2cc(C(=O)N3CCCc4ccccc43)ccn2)n1 [Compound I-123]	< 50 nM	–
C[C@H](CO)n1cnnc1-c1cccc(NC(=O)Nc2cc(C(=O)N3CCCc4ccccc43)ccn2)n1 [Compound I-124]	< 50 nM	–
CC(C)n1cnnc1-c1cccc(NC(=O)Nc2cc(C(=O)N3CCCC4CCCCC43)ccn2)n1 (centres unmarked) [Compound I-125]	< 50 nM	–
C[C@H](CO)n1cnnc1-c1cccc(NC(=O)Nc2cc(C(=O)N3CCC[C@@H]4CCCC[C@H]43)ccn2)n1 [Compound I-126]	< 50 nM	–
CC(C)n1cnnc1-c1cccc(NC(=O)Nc2cc(C(=O)N3CC[C@@H]4CCCC[C@H]4C3)ccn2)n1 [Compound I-127]	< 50 nM	–
CC(C)n1cnnc1-c1cccc(NC(=O)Nc2cc(C(=O)N3CCC4(CCCCC4)CC3)ccn2)n1 [Compound I-128]	< 50 nM	–
C[C@H](CO)n1cnnc1-c1cccc(NC(=O)Nc2cc(C(=O)N3CCC4(CCCCC4)CC3)ccn2)n1 [Compound I-129]	< 50 nM	–
CC(C)n1cnnc1-c1cccc(NC(=O)Nc2cc(C(=O)N3CCC(N4CCOCC4)CC3)ccn2)n1 [Compound I-130]	< 50 nM	–
C[C@H](CO)n1cnnc1-c1cccc(NC(=O)Nc2cc(C(=O)N3CCC(N4CCOCC4)CC3)ccn2)n1 [Compound I-131]	< 50 nM	–
CC(C)n1cnnc1-c1cccc(NC(=O)Nc2cc(C(=O)N3CCOCC3)ccn2)n1 [Compound I-132]	–	< 50 nM
C[C@H](CO)n1cnnc1-c1cccc(NC(=O)Nc2cc(C(=O)N3CCOCC3)ccn2)n1 [Compound I-133]	–	< 50 nM
CC(C)n1cnnc1-c1cccc(NC(=O)Nc2cc(C(=O)N3CCC(=O)CC3)ccn2)n1 [Compound I-134]	–	< 50 nM
C[C@H](CO)n1cnnc1-c1cccc(NC(=O)Nc2cc(C(=O)N3CCC(=O)CC3)ccn2)n1 [Compound I-135]	–	< 50 nM
CC(C)n1cnnc1-c1cccc(NC(=O)Nc2cc(C(=O)N3CCC(O)CC3)ccn2)n1 [Compound I-136]	< 50 nM	–
C[C@H](CO)n1cnnc1-c1cccc(NC(=O)Nc2cc(C(=O)N3CCC(O)CC3)ccn2)n1 [Compound I-137]	< 50 nM	–
CC(C)n1cnnc1-c1cccc(NC(=O)Nc2cc(C(=O)N3CCC(C)(O)CC3)ccn2)n1 [Compound I-138]	< 50 nM	–
CC(C)n1cnnc1-c1cccc(NC(=O)Nc2cc(C(=O)N3CCNCC3)ccn2)n1 [Compound I-139]	–	< 50 nM
C[C@H](CO)n1cnnc1-c1cccc(NC(=O)Nc2cc(C(=O)N3CCNCC3)ccn2)n1 [Compound I-140]	–	< 50 nM
CC(C)n1cnnc1-c1cccc(NC(=O)Nc2cc(C(=O)N3CCN(C)CC3)ccn2)n1 [Compound I-141]	< 50 nM	–
C[C@H](CO)n1cnnc1-c1cccc(NC(=O)Nc2cc(C(=O)N3CCN(C)CC3)ccn2)n1 [Compound I-142]	< 50 nM	–
CC(C)n1cnnc1-c1cccc(NC(=O)Nc2cc(C(=O)N3CCC(F)(F)CC3)ccn2)n1 [Compound I-143]	< 50 nM	–
C[C@H](CO)n1cnnc1-c1cccc(NC(=O)Nc2cc(C(=O)N3CCC(F)(F)CC3)ccn2)n1 [Compound I-144]	< 50 nM	–
CC(C)n1cnnc1-c1cccc(NC(=O)Nc2cc(C(=O)N3CCCC3)ccn2)n1 [Compound I-145]	–	< 50 nM
C[C@H](CO)n1cnnc1-c1cccc(NC(=O)Nc2cc(C(=O)N3CCCC3)ccn2)n1 [Compound I-146]	–	< 50 nM
CC(C)n1cnnc1-c1cccc(NC(=O)Nc2cc(C(=O)N3CCCCCC3)ccn2)n1 [Compound I-147]	< 50 nM	–
C[C@H](CO)n1cnnc1-c1cccc(NC(=O)Nc2cc(C(=O)N3CCCCCC3)ccn2)n1 [Compound I-148]	< 50 nM	–
CC(C)n1cnnc1-c1cccc(NC(=O)Nc2cc(C(=O)N3C4CCCC3CC4)ccn2)n1 [Compound I-149]	< 50 nM	–
C[C@H](CO)n1cnnc1-c1cccc(NC(=O)Nc2cc(C(=O)N3C4CCCC3CC4)ccn2)n1 [Compound I-150]	< 50 nM	–
CC(C)n1cnnc1-c1cccc(NC(=O)Nc2cc(C(=O)NC3CCCCC3)ccn2)n1 [Compound I-151]	< 50 nM	–
